In patent publication US20240417410A1, “TRICYCLIC COMPOUNDS FOR THE TREATMENT OF CANCER” (Hoffmann-La Roche Inc., priority 2023, published 2024):

How the values were obtained:
[1] = Single dose pharmacokinetics (PK) study in female BALB/c mice; type: in vivo, mouse; conditions: female, BALB/c, mouse, plasma, female BALB/c mice
Procedure: The purpose of this study was to determine the pharmacokinetics of selected compounds following single intravenous bolus or oral gavage administration in female BALB/c mice. Briefly, two groups of female BALB/c mice (available from Shanghai Lingchang Biotechnology Co., Ltd) (N=3/group) were treated with a single dose of compound intravenously at 3 mg/kg (IV) or orally at 30 mg/kg (PO). Blood samples were collected at 5 min (only for IV), […], 30 min, 1 h, 2 h, 4 h, 7 h and 24 h post-dose. Blood samples were placed on ice until centrifugation to obtain plasma samples. The concentration of compound in plasma samples was determined using LC-MS/MS method. The pharmacokinetic parameters were calculated by non-compartmental analysis.

human hepatocytes = assay: Human hepatocyte stability assay; type: in vitro ADME; conditions: 1 μM compound, human hepatocytes 1×10^6 cells/mL
Procedure: The hepatocyte stability assay measures the rate of disappearance of a compound from incubations with cryopreserved suspension hepatocytes from human. Positive controls, including Midazolam, Raloxifene and Dextromethorphan, are included in every experiment. Incubations consist of 1 μM tested compound and suspension of human hepatocytes (1×10^6 cells/mL) in supplemented Williams' E Medium with 10% FBS and 0.5% Penicillin-streptomycin. The hepatocyte suspension was incubated with intermittent shaking 900 rpm at 37° C., in a 5% CO2 incubator. The reaction was stopped by adding methanol containing internal standard (2 μM Tolbutamide) at 2, 10, 20, 40, 60 and 120 minutes after compound addition, depletion of the parent compound was monitored by LC-MS/MS analysis.

KRAS G12V-BRAF complex = KRAS G12V-BRAF complex (Homo sapiens (Human), UniProt P01116+P62937, G12V); assay: KRAS G12V-BRAF with CYPA interaction assay (TR-FRET, selectivity test, Example 132); type: biochemical
Sequence of KRAS G12V-BRAF complex (P01116-2 other isoform, or with tags, fused parts or gaps G12V): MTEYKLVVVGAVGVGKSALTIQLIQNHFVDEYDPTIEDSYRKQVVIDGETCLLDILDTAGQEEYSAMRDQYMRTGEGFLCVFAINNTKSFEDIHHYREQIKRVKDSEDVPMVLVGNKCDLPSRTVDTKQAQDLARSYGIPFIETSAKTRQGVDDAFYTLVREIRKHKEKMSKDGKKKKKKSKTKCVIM
Sequence of KRAS G12V-BRAF complex (P62937 whole entry): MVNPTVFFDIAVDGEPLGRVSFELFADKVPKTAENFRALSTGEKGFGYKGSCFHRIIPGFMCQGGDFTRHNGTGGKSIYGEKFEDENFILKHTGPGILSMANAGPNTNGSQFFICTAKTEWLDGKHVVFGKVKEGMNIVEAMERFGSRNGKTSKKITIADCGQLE
Procedure: (§1) In this example, TR-FRET was used to measure the compound or compound-CYPA dependent disruption of the KRAS G12V-BRAF complex to assess inhibition efficacy. The IC50 ratio between WT KRAS/HRAS/NRAS and KRAS G12V mutant was calculated as selective index, which indicated tolerability and safety profile. Disruption of WT KRAS/HRAS/NRAS-BRAF complex by compounds was detected respectively. In assay buffer containing 25 mM HEPES (PH-7.4,4-(2-hydroxyethyl)-1-piperazineethanesulfonic acid, Thermo, 15630080), 0.002% Tween20, 0.1% BSA, 100 mM NaCl, 5 mM MgCl2, 10 μM GMPPNP (Guanosine 5′-[β,γ-imido]triphosphate trisodium salt hydrate, Sigma, G0635), tagless CYPA and GMPPNP loaded 6His-RAS proteins, and GST-BRAF^RBD were mixed in a well of a 384-well assay plate at final concentrations of 50 nM, 6.25 nM and 1 nM, respectively. Compound was present in plate wells as a 16-point 3-fold dilution series starting at a final concentration of 10 μM and incubated for 3 hours. A mixture of MAb Anti-6His-XL665 (Cisbio, 61HISXLB) and Mab anti-GST-TB cryptate (Cisbio, 61GSTTLB) was then added at a final concentration of 6.67 nM and 0.21 nM, respectively, and the plate was incubated for an additional 1.5 hours. TR-FRET signal was read on a PHERstar FSX microplate reader (Ex320 nm, Em 665/615 nm). Compounds that facilitate disruption of the RAS-BRAF complex were identified as those eliciting a decrease in the TR-FRET ratio relative to DMSO control wells.

WT KRAS-BRAF complex = WT KRAS-BRAF complex (Homo sapiens (Human), UniProt P01116+P62937); assay: WT KRAS-BRAF with CYPA interaction assay (TR-FRET); type: biochemical; conditions: WT KRAS
Sequence of WT KRAS-BRAF complex (P01116-2 whole entry, looked up): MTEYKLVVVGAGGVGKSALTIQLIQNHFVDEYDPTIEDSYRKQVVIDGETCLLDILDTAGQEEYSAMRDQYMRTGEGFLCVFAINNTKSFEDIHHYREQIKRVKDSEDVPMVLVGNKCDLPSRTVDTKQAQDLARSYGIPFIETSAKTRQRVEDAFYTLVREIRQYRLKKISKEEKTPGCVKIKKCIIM
Sequence of WT KRAS-BRAF complex (P62937 whole entry, looked up): as the sequence (P62937 whole entry) above
Procedure: as §1

WT HRAS-BRAF complex = WT HRAS-BRAF complex (Homo sapiens (Human), UniProt P01112+P62937); assay: WT HRAS-BRAF with CYPA interaction assay (TR-FRET); type: biochemical; conditions: WT HRAS
Sequence of WT HRAS-BRAF complex (P01112 whole entry, looked up): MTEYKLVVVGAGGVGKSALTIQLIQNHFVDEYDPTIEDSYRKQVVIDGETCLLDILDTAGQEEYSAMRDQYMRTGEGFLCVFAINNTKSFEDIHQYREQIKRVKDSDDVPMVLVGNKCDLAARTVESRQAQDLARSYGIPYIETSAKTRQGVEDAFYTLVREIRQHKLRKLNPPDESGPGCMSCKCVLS
Sequence of WT HRAS-BRAF complex (P62937 whole entry, looked up): as the sequence (P62937 whole entry) above
Procedure: as §1

WT NRAS-BRAF complex = WT NRAS-BRAF complex (Homo sapiens (Human), UniProt P01111+P62937); assay: WT NRAS-BRAF with CYPA interaction assay (TR-FRET); type: biochemical; conditions: WT NRAS
Sequence of WT NRAS-BRAF complex (P01111 whole entry, looked up): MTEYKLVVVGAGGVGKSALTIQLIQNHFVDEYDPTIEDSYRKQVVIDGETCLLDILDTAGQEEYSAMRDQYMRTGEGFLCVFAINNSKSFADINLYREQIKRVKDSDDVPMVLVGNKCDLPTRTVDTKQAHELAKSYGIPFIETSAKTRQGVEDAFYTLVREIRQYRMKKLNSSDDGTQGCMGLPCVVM
Sequence of WT NRAS-BRAF complex (P62937 whole entry, looked up): as the sequence (P62937 whole entry) above
Procedure: as §1

hERG potassium channel = hERG potassium channel (Homo sapiens (Human), UniProt Q12809); assay: hERG potassium channel assay (manual patch clamp, CHO cells); type: cell-based; conditions: 34° C., manual patch, CHO cells
Sequence of hERG potassium channel (Q12809 whole entry): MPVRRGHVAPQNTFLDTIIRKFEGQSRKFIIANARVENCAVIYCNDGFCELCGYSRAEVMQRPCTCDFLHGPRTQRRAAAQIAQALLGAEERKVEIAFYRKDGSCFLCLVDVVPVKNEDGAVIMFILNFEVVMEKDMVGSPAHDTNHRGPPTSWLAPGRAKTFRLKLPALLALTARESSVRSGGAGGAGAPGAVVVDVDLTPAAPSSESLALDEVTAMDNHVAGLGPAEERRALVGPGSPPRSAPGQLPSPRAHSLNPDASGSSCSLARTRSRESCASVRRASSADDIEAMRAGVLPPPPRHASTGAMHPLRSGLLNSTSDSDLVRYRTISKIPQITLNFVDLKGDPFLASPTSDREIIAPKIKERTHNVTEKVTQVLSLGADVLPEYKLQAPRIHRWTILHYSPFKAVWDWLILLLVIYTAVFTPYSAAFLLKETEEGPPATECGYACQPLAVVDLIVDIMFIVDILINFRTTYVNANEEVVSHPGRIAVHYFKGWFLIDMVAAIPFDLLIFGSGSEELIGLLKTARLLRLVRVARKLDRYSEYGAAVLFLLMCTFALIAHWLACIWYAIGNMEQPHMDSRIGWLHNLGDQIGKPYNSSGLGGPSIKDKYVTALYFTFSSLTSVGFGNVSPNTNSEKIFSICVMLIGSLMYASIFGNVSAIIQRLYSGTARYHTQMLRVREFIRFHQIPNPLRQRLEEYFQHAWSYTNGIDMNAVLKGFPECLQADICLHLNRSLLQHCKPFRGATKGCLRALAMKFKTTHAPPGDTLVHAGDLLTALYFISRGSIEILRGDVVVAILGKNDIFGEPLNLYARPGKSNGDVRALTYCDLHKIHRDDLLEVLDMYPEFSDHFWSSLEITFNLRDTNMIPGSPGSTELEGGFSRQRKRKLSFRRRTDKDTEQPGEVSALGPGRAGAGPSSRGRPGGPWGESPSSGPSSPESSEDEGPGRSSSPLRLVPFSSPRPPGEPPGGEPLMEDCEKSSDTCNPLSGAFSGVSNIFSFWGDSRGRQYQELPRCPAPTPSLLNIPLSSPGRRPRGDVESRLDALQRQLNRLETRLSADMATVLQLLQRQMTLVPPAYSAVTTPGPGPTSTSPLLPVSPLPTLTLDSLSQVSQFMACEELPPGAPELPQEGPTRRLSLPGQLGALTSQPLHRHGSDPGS
Procedure: The purpose of the test was to screen compounds for the activity on hERG channels as a non-clinical cardiac safety evaluation.
Advanced hERG experiments were performed at near-physiological temperature (34° C.) by HEKA EPC10 manual patch system (heka elektronik, EPC10 amplifier). The CHO cells (B′SYS GmbH) stably transfected hERG channel were initially held at −80 mV, depolarized to voltages between −40 mV (100 ms) to 20 mV (500 ms) to activate the hERG outward currents, and then repolarized to −40 mV (500 ms) to record the hERG tail currents, with an interpulse interval of 15s. The recording environment included: Extracellular solution (in mM): 150 NaCl, 4 KCl, 1.2 CaCl2), 1 MgCl2 and 10 HEPES; pH adjusted to 7.2-7.4 with 5 M NaOH; Intracellular solution (in mM): 125 KCl, 10 NaCl, 5 EGTA, 10 HEPES, 0.1 Na2GTP and 5 MgATP; pH adjusted to 7.2 with 1 M KOH. Current inhibitions in the presence of more than 4 concentrations in quadruplicate were used to fit hERG IC50 by Graphpad prism V8.0.

AGS cells (KRAS G12D) = assay: Cell viability assay (Cell Counting Kit-8, 3-day); type: cell-based, human; conditions: Homo sapiens, 72 h, 72 hrs incubation
Procedure, shortened: (§2)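 Cells were seeded at 5,000 cells/well (NCI-H358) or 2,000 cells/well (AGS, SW620), incubated overnight, then treated with compounds in 0.5% DMSO final for 72 hrs. CCK-8 was added and OD450 minus OD650 read after 2 hrs; IC50 came from a 4-parameter sigmoidal fit.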

[2] = system: NCI-H358 cells (KRAS G12C); assay: Cell viability assay (Cell Counting Kit-8, 3-day); type: cell-based, human; conditions: Homo sapiens, NCI-H358, 72 h, NCI-H358, 72 hrs incubation
Procedure, shortened: as §2

SW620 cells (KRAS G12V) = assay: Cell viability assay (Cell Counting Kit-8, 3-day); type: cell-based, human; conditions: Homo sapiens, SW-620; SW620, 72 hrs incubation
Procedure, shortened: as §2

KRAS G12C-BRAF complex = KRAS G12C-BRAF complex (Homo sapiens (Human), UniProt P01116+P62937, G12C); assay: KRAS-BRAF with CYPA (500 nM) interaction assay (TR-FRET, Example 136); type: biochemical; conditions: KRAS G12C-BRAF disruption
Sequence of KRAS G12C-BRAF complex (P01116-2 other isoform, or with tags, fused parts or gaps G12C): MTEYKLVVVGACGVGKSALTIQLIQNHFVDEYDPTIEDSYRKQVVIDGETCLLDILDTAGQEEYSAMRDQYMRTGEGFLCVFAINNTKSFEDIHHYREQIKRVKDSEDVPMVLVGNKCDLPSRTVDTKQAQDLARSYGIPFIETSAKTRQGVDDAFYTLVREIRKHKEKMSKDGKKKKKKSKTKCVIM
Sequence of KRAS G12C-BRAF complex (P62937 whole entry): as the sequence (P62937 whole entry) above

[3] = system: phosphorylation of ERK, KRAS G12C in NCI-H358 cells; assay: pERK inhibition assay; type: cell-based; conditions: Homo sapiens, NCI-H358, 4 h
Procedure, shortened: (§3)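 NCI-H358 (KRAS G12C), AGS (G12D) and SW620 (G12V) cells plated overnight, then treated with compound for 4 h in 0.5% DMSO. After fixing and methanol permeabilisation, phospho-ERK was detected by in-cell ELISA (HRP/TMB, OD450). IC50 from a 4-parameter sigmoidal fit.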

[4] = system: phosphorylation of ERK, KRAS G12D in AGS cells; assay: pERK inhibition assay; type: cell-based; conditions: Homo sapiens, AGS, 4 h
Procedure, shortened: as §3

[5] = system: phosphorylation of ERK, KRAS G12V in SW620; assay: pERK inhibition assay; type: cell-based; conditions: Homo sapiens, SW-620, 4 h, SW620 cells
Procedure, shortened: as §3

Compound	clearance ([1]; iv, 3 mg/kg) [mL/min/kg]	AUC(0-t) ([1]; po, 30 mg/kg) [ng·h/mL]	Cmax ([1]; po, 30 mg/kg, po, read-out: Cmax) [ng/mL]	Hepatic clearance (Human) (human hepatocytes) [mL/min/kg]	IC50 (KRAS G12V-BRAF complex) [nM]	IC50 (WT KRAS-BRAF complex) [nM]	IC50 (WT HRAS-BRAF complex) [nM]	IC50 (WT NRAS-BRAF complex) [nM]	IC50 (hERG potassium channel) [nM]	IC20 (hERG potassium channel; human, CHO cells stably transfected with hERG channel) [nM]	IC50 (AGS cells (KRAS G12D)) [nM]	IC50 [2] [nM]	IC50 (SW620 cells (KRAS G12V)) [nM]	IC50 (KRAS G12C-BRAF complex) [nM]	IC50 [3] [nM]	IC50 [4] [nM]	IC50 [5] [nM]
CCn1c(-c2cc(N3CCN(C)CC3)cnc2[C@H](C)OC)c2c3cc(ccc31)-c1csc(n1)C[C@H](NC(=O)[C@H]1[C@H](C)[C@@H]1C)C(=O)N1CCC[C@H](N1)C(=O)OCC(C)(C)C2 [Example A252, reference compound]	37.8	14600	2440	9.2	9	18	23	19	11000	3000							
CO[C@@H](C)c1ncc(N2CCN3CCOC[C@@H]3C2)cc1-c1c2c3cc(cc4c3n1CCC4)-c1csc(n1)C[C@H](NC(=O)[C@H]1C[C@@H]1c1cncnc1)C(=O)N1CCC[C@H](N1)C(=O)OCC(C)(C)C2 (atropisomer, axis not shown; (M)) [Example 105, (1S,2S)-N-[(7S,13S)-(20M)-20-[5-[(9αS)-3,4,6,7,9,9a-hexahydro-1H-pyrazino[2,1-c][1,4]oxazin-8-yl]-2-[(1S)-1-methoxyethyl]-3-pyridyl]-17,17-dimethyl-8,14-dioxo-15-oxa-4-thia-9,21,30,31-tetrazahexacyclo[23.3.1.1^2,5.1^9,13.0^19,27.0^21,26]hentriaconta-1 (28),2,5 (31),19,25 (29),26-hexaen-7-yl]-2-pyrimidin-5-yl-cyclopropanecarboxamide]											6.8	1.5	0.6	13.3	1.5	2.2	0.4
CO[C@@H](C)c1ncc(N2CCOCC2)cc1-c1c2c3cc(cc4c3n1CCO4)-c1csc(n1)C[C@H](NC(=O)[C@H]1C[C@@H]1C)C(=O)N1CCC[C@H](N1)C(=O)OCC(C)(C)C2 (atropisomer, axis not shown; (M)) [Example 8, (1S,2S)-N-[(7S,13S)-(20M)-20-[2-[(1S)-1-methoxyethyl]-5-morpholino-3-pyridyl]-17,17-dimethyl-8,14-dioxo-15,24-dioxa-4-thia-9,21,30,31-tetrazahexacyclo[23.3.1.1^2,5.1^9,13.0^19,27.0^21,26]hentriaconta-1 (28),2,5 (31), 19,25 (29),26-hexaen-7-yl]-2-methyl-cyclopropanecarboxamide]											18.7	5.9	1.1	23.7	2.6	7.1	1.2
CO[C@@H](C)c1ncc(N2CCN(CCCO)CC2)cc1-c1c2c3cc(cc4c3n1CCC4)-c1csc(n1)C[C@H](NC(=O)[C@H]1[C@H](C)[C@@H]1C)C(=O)N1CCC[C@H](N1)C(=O)OCC(C)(C)C2 (atropisomer, axis not shown; (M)) [Example 111, (1r,2R,3S)-N-[(7S,13S)-(20M)-20-[5-[4-(3-hydroxypropyl)piperazin-1-yl]-2-[(1S)-1-methoxyethyl]-3-pyridyl]-17,17-dimethyl-8,14-dioxo-15-oxa-4-thia-9,21,30,31-tetrazahexacyclo[23.3.1.1^2,5.1^9,13.0^19,27.0^21,26]hentriaconta-1 (28),2,5 (31), 19,25 (29),26-hexaen-7-yl]-2,3-dimethyl-cyclopropanecarboxamide]											0.8	1	0.2	4.7	0.6	2	0.4
CO[C@@H](C)c1ncc(N2CCOCC2)cc1-c1c2c3cc(cc4c3n1CCO4)-c1csc(n1)C[C@H](NC(=O)[C@H]1[C@@H]3COC[C@@H]31)C(=O)N1CCC[C@H](N1)C(=O)OCC(C)(C)C2 (atropisomer, axis not shown; (M)) [Example 10, (1S,5R,6r)-N-[(7S,13S)-(20M)-20-[2-[(1S)-1-methoxyethyl]-5-morpholino-3-pyridyl]-17,17-dimethyl-8,14-dioxo-15,24-dioxa-4-thia-9,21,30,31-tetrazahexacyclo[23.3.1.1^2,5.1^9,13.0^19,27.0^21,26]hentriaconta-1 (28),2,5 (31), 19,25 (29),26-hexaen-7-yl]-3-oxabicyclo[3.1.0]hexane-6-carboxamide]											4.6	2.2	< 0.6	5.9	3.3	1.4	1.2
